In US9303057B2, “Methods and reagents for analyzing riboswitches using FRET” (CORNELL UNIVERSITY, priority 2011, dated 2016):

How the values were obtained:
SAM-II riboswitch [1] = test: smFRET imaging of pseudoknot formation of surface-immobilized Cy3/Cy5-labeled riboswitch; format: binding, Sargasso Sea metagenome
Description: To reveal the underlying dynamics of SAM-II pseudoknot formation, single-molecule FRET (smFRET) (Aleman 2008; Lemay 2006; Brenner 2010) investigations were performed using the same labeling strategy as in Example 2 (i.e., A14^Cy3U and G52^Cy5U). To enable surface immobilization of the SAM-II riboswitch within a passivated microfluidic device and extended observation periods, a 5′-biotin moiety was included in the design (FIG. 2, FIG. 3).
smFRET data were acquired using a prism-based total internal reflection (TIR) microscope, where the biotinylated SAM-II riboswitch was surface immobilized within PEG-passivated, strepatividin-coated quartz microfluidic devices (Munro 2007). The Cy3 fluorophore was directly illuminated under 1.5 kW/cm^2 intensity at 532 nm (Laser Quantum). Photons emitted from both Cy3 and Cy5 were collected using a 1.2 NA 60× Plan-APO water-immersion objective (Nikon), where optical treatments were used to spatially separate Cy3 and Cy5 frequencies onto two, synchronized EMCCD devices (Evolve 512, Photometrics). Fluorescence data were acquired using MetaMorph acquisition software (Universal Imaging Corporation) at a rate of 66.7 frames per second (15 ms integration). Fluorescence trajectories were selected from the movie files for analysis using automated image analysis software coded in Matlab (The MathWorks). Fluorescence trajectories were selected based on the following criteria: a single catastrophic photobleaching event, at least 6:1 signal-to-background noise ratio (SNR) calculated from the total fluorescence intensity, and a FRET lifetime of at least 30 frames (450 ms) in any FRET state ≧0.15. smFRET trajectories were calculated from the acquired fluorescence data using the formula FRET=ICy5/(ICy3+ICy5), where ICy3 and ICy5 represent the Cy3 and Cy5 fluorescence intensities, respectively. Equilibrium smFRET experiments were performed in 50 mM KMOPS, 100 mM KCl, pH 7.5 buffer in the presence of an optimized oxygen scavenging and triplet state quenching cocktail in the presence of an oxygen scavenging environment (1 unit protocatchuate-3,4-dioxygenase, 2 mM protocatechuic acid; 1 mM Trolox, 1 mM cyclooctatetraene, 1 mM nitrobenzyl-alcohol) (Dave 2009). Concentrations of MgCl2 and SAM were as specified in the figure captions. […]
As previously described, the emission intensities of both Cy3 and Cy5 fluorophores were tracked simultaneously for individual surface-immobilized molecules using a wide-field, prism-based total internal reflection configuration, with a single-frequency light source (532 nm) (Munro 2007). […] The dynamic behaviors of individual molecules were assessed using hidden Markov modeling (HMM) procedures, and ensemble information was obtained by assembling single-molecule FRET trajectories into population FRET histograms. […]

SAM-II riboswitch [2] = test: Bulk FRET detection of pseudoknot formation (steady-state fluorescence of Cy3/Cy5-labeled riboswitch); format: binding, Sargasso Sea metagenome
Description: FIG. 2 illustrates the construction of a Cy3/Cy5-labeled SAM-II construct sensitive to pseudoknot formation. (a) The strategy for synthesis, labeling and enzymatic ligation is shown, with the chemical structures of fluorophores and linkers provided in FIG. 3. (b) Anion-exchange (AE) HPLC trace of enzymatic ligation using T4 DNA ligase and a DNA splint at the start (0 h) and after completion (9 h). The product (retention time=37.3 min) was purified by AE-HPLC. (c) LC-ESI mass spectrum of purified ligation product. (d) Fluorescence emission response of the acceptor dye in the Cy5/Cy3 labeled SAM-II construct upon consecutive Mg^2+ and SAM addition under conditions where cRNA=0.5 μM, cSAM=5.0 μM, cmg=2.0 mM, 50 mM KMOPS, 100 mM KCl, 20° C., pH 7.5; λex=540 nm, λem=665 nm.
All experiments were measured on a Cary Eclipse spectrometer (Varian, Palo Alto, USA) equipped with a peltier block, a magnetic stirring device, and a RX2000 stopped-flow apparatus (Applied Photophysics Ltd., Leatherhead, UK).
Based on the reported structure of the SAM-II riboswitch (Gilbert 2008), an acceptor (Cy5) fluorophore was attached to the non-conserved nucleoside at position 14, and a donor (Cy3) fluorophore at the unpaired terminal residue at position 52 (FIG. 1a). […]

[Cl-].[Cl-].[Mg+2] [Mg^2+]
increase of the absolute value of the low-FRET state (SAM-II riboswitch [1]; 2 mM Mg2+, no SAM): 0.08 | stabilization of the high-FRET state (SAM-II riboswitch [1]; 2 mM Mg2+, no SAM): approximately 10 fold

C[S+](CC[C@H](N)C(=O)O)C[C@H]1O[C@@H](n2cnc3c(N)ncnc32)[C@H](O)[C@@H]1O (stereo partly drawn) [SAM, S-adenosylmethionine]
observed rate of increase of acceptor fluorescence emission (single exponential) (SAM-II riboswitch [2]; 6 equivalents of SAM, Cy3/Cy5-labeled riboswitch, cRNA=0.5 μM, 2.0 mM Mg2+, 20° C., pH 7.5): 1.19±0.06×10^−2 s^−1 | fluorescence emission from the acceptor fluorophore achieved via FRET (SAM-II riboswitch [2]; addition of 10 equivalents of SAM): dramatically increase in intensity | average dwell time in the high-FRET state (SAM-II riboswitch [1]; 2 mM Mg2+ and 10 μM SAM): approximately one | stabilization of the high-FRET state (SAM-II riboswitch [1]; 2 mM Mg2+ and 10 μM SAM): ~10 fold
